# Patent publication US6033867A, “Fructosyl amino acid oxidase, process for producing the same, and method of assaying amadori compounds using the enzyme” (Kyoto Daiichi Kagaku Co., Ltd., priority 1995, dated 2000)
# Key:
# FAOD-A [1] = assay: Effect of various inhibitors on FAOD-A activity; assay type: biochemical, A. terreus IFO6365; settings: for inhibition of FAOD-A activity, in words: PCMB 0.1 mM, others 1 mM
# Experimental: (§1) To an enzyme solution was added a solution containing a metal ion to be tested at a final concentration of 1 mM in 0.1 M Tris-HCl buffer (pH 8.0). After 5-minute-incubation at 30° C., the enzyme activity was assayed.
# (§2) The inhibitory effect of various substances was tested in a manner substantially analogous to that described in (1) above. In the present test, the final concentration of parachloro mercuric benzoate (PCMB) is 0.1 mM while that of others 1 mM.
# FAOD-A [2] = assay: Effect of metal ion on the activity of FAOD-A; assay type: biochemical, A. terreus IFO6365; settings: for effect of metal ion on FAOD-A, in words: 1 mM
# Experimental: as §1
# FAOD-L [3] = molecular target: T1, FAOD-L (Aspergillus terreus, UniProt Q92204); assay: Effect of metal ion on the activity of FAOD-L; assay type: biochemical, A. terreus GP1; settings: for relative activity (%): material 1 mM, 0.1 M Tris-HCl pH 8.0, 5 min at 30° C., None = 100; for effect of metal ion on FAOD-L, in words: 1 mM
# T1 construct: 94 kDa by gel filtration, 48 kDa subunit, so homodimer
# Experimental: as §1
# FAOD-L [4] = molecular target: T1, FAOD-L; assay: Effect of various inhibitors on FAOD-L activity; assay type: biochemical, A. terreus GP1; settings: for inhibition of FAOD-L activity, in words: PCMB 0.1 mM, others 1 mM
# Experimental: as §1, §2
# [5] = molecular target: T2, FAOD-L originated from A. terreus GP1 (Aspergillus terreus, UniProt Q92204); assay: Substrate specificity of FAOD-L; assay type: biochemical
# T2 construct: 94 kDa by gel filtration, 48 kDa subunit, so homodimer
# T2 sequence (Q92204 1-437): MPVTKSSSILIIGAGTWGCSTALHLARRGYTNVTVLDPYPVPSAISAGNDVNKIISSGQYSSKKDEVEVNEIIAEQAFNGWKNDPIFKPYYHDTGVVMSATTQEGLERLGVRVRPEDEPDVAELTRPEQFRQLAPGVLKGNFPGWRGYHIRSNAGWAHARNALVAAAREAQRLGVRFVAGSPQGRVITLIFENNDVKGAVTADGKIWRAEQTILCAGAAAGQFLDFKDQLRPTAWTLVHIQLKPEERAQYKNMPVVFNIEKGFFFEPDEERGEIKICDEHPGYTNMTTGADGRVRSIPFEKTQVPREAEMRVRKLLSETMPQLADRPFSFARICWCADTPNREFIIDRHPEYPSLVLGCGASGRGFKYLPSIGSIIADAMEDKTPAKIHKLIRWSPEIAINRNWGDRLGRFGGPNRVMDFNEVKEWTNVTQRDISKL
# Experimental: (§3) A 100 mM FZL solution was prepared by dissolving previously-obtained FZL in distilled water. To 100 μl of 45 mM 4-aminoantipyrine, 100 μl of 60 U/ml peroxidase, 100 μl of 60 mM phenol, 1 ml of 0.1 M Tris-HCl buffer (pH 8.0) and 50 μl of enzyme solution was added distilled water to total volume of 3.0 ml. The mixture was incubated at 30° C. for 2 minutes, 50 μl of 100 mM FZL solution was added thereto, and the time course of absorbance at 505 nm was measured. The amount (μmole) of hydrogen peroxide generated per minute was calculated on the basis of molar absorptivity (5.16×10^3 M^-1 cm^-1) of quinone pigment produced, and the resultant numerical value was taken as a unit(U) of enzyme activity.
# [6] = system: FAOD-A originated from A. terreus IFO6365; assay: Substrate specificity of FAOD-A; assay type: biochemical
# Experimental: as §3
# [7] = material 1 mM, 0.1 M Tris-HCl pH 8.0, 5 min at 30° C., None = 100
# [8] = substrate concentration 1.67 mM
compound,measurement,setting,value
O=C(O)CI [Acetic iodide],relative activity (%),FAOD-A [1],66%
[Ca+2].[Cl-].[Cl-] [CaCl2],relative activity (%),FAOD-A [2]; [7],104%
same,relative activity (%),FAOD-L [3],96%
[Cl-].[Cs+] [CsCl],relative activity (%),FAOD-A [2]; [7],108%
"O=C(O)c1cc(SSc2ccc([N+](=O)[O-])c(C(=O)O)c2)ccc1[N+](=O)[O-] [DTNB, 5,5Dithiobis(2-nitrobenzoic acid)]","inhibition of FAOD-A activity, in words",FAOD-A [1],inhibit the FAOD-A activity completely
same,"inhibition of FAOD-L activity, in words",FAOD-L [4],inhibit the FAOD-L activity strongly
O=S(=O)([O-])[O-].[Fe+2] [FeSO4],relative activity (%),FAOD-L [3],95%
[Cl-].[Li+] [LiCl],relative activity (%),FAOD-A [2]; [7],103%
[Cl-].[Cl-].[Mg+2] [MgCl2],relative activity (%),FAOD-A [2]; [7],108%
same,relative activity (%),FAOD-L [3],101%
[Cl][Mn][Cl] [MnCl2],"effect of metal ion on FAOD-A, in words",FAOD-A [2],inhibitory
same,relative activity (%),FAOD-A [2]; [7],59%
same,relative activity (%),FAOD-L [3],101%
O=C(N[C@@H](CCCCNCC(=O)[C@@H](O)[C@H](O)[C@H](O)CO)C(=O)O)OCc1ccccc1 [N^ε -fructosyl N^α -Z-lysine],Specific activity (%),[5]; [8],100%
same,Specific activity (%),[6]; [8],100%
[Cl-].[Na+] [NaCl],relative activity (%),FAOD-A [2]; pH 8,104%
[Cl-].[Rb+] [RbCl],relative activity (%),FAOD-A [2]; [7],107%
[Co] [cobalt],"effect of metal ion on FAOD-A, in words",FAOD-A [2],inhibitory
[Cu+2] [copper],"effect of metal ion on FAOD-L, in words",FAOD-L [3],inhibitory
NN [hydrazine],"inhibition of FAOD-A activity, in words",FAOD-A [1],inhibit the FAOD-A activity completely
same,"inhibition of FAOD-L activity, in words",FAOD-L [4],inhibit the FAOD-L activity strongly
NO [hydroxylamine],relative activity (%),"FAOD-A [1]; material 1 mM, None = 100",10%
same,relative activity (%),"FAOD-L [4]; material 1 mM, None = 100",2%
c1cnc2c(c1)ccc1cccnc12 [o-Phenanthroline],relative activity (%),"FAOD-A [1]; material 1 mM, None = 100",62%
"O=C(O)c1cc[c]([Hg][Cl])cc1 [p-CMB, parachloro mercuric benzoate]","inhibition of FAOD-A activity, in words",FAOD-A [1],inhibit the FAOD-A activity completely
same,"inhibition of FAOD-L activity, in words",FAOD-L [4],inhibit the FAOD-L activity strongly
NNc1ccccc1 [phenylhydrazine],"inhibition of FAOD-A activity, in words",FAOD-A [1],inhibit the FAOD-A activity completely
NNC(N)=O [semicarbazide],relative activity (%),"FAOD-A [1]; material 1 mM, None = 100",64%
[Ag+] [silver],"effect of metal ion on FAOD-L, in words",FAOD-L [3],inhibited completely
[Zn+2] [zinc],"effect of metal ion on FAOD-A, in words",FAOD-A [2],inhibited
same,"effect of metal ion on FAOD-L, in words",FAOD-L [3],inhibitory
"c1ccc(-c2ccccn2)nc1 [α,α-Dipyridyl]",relative activity (%),"FAOD-A [1]; material 1 mM, None = 100",67%
Fructosyl valine,Specific activity (%),[5]; [8],32.1%
same,Specific activity (%),[6]; [8],20.5%
N^ε -Fructosylpoly-L-lysine,Specific activity (%),[5]; substrate concentration 0.02%,0.30%
same,Specific activity (%),[6]; substrate concentration 0.02%,2.0%
mercury,"effect of metal ion on FAOD-A, in words",FAOD-A [2],inhibited
same,"effect of metal ion on FAOD-L, in words",FAOD-L [3],inhibited completely
